Measurements reported in patent EP4589010A1, “SCREENING METHOD FOR OFFENSIVE ODOR SUPPRESSING MATERIAL” (priority 2022, dated 2024).

Experiments:
[1] = tested on: broadly tuned olfactory receptor OR2W1; details: cited from earlier work
[2] = tested on: cells that do not express olfactory receptors; assay: Luciferase assay, mock test; assay type: cell-based
Description: 0.05 µg of human olfactory receptor gene expression vector, 0.01 µg of RTP1S vector, and 0.01 µg of firefly luciferase vector pGloSensor™-22F cAMP Plasmid (Promega) containing CMV promoter were dissolved in 10 µL of Opti-MEM I (Gibco) to prepare a gene solution (per well). HEK293T cells were seeded at 100 µL per well in a 96-well plate (Biocoat, Corning) at a number of cells that reached subconfluence after 24 hours, and the gene solution was added to each well by lipofection according to the usage of Lipofectamine 3000 so that the cells were transfected with the gene and cultured at 37°C in a 5% carbon dioxide atmosphere for 24 hours. […] Then, 10 µL of 10 mM hexanal solution prepared in HEPES buffer supplemented with 300 µM CuCl2 and FBS was added to each well, and the changes in the response value of the luciferase activity over time were measured every minute immediately after the addition, thus obtaining the responses of approximately 400 human olfactory receptors to hexanal. The magnitude of the olfactory receptor response was expressed as a fold increase value obtained by dividing the maximum response value of luciferase activity that occurred after stimulation with hexanal by the luciferase activity before the stimulation with hexanal. […]

[3] = tested on: olfactory receptor OR51E1; assay: Luciferase (GloSensor cAMP) assay, response of olfactory receptor to hexanal; assay type: cell-based, human; details: HEK293T cells expressing OR51E1; various hexanal concentrations; Figure 6
Description: (§1) 0.05 µg of human olfactory receptor gene expression vector, 0.01 µg of RTP1S vector, and 0.01 µg of firefly luciferase vector pGloSensor™-22F cAMP Plasmid (Promega) containing CMV promoter were dissolved in 10 µL of Opti-MEM I (Gibco) to prepare a gene solution (per well). HEK293T cells were seeded at 100 µL per well in a 96-well plate (Biocoat, Corning) at a number of cells that reached subconfluence after 24 hours, and the gene solution was added to each well by lipofection according to the usage of Lipofectamine 3000 so that the cells were transfected with the gene and cultured at 37°C in a 5% carbon dioxide atmosphere for 24 hours. After removal of the culture solution, the cells were washed once with HEPES buffer, and 100 µL of GloSensor™ cAMP Reagent (Promega), adjusted to a predetermined concentration with HEPES buffer supplemented with FBS, was added to each well, and allowed to stand for 2 hours at room temperature. Then, 10 µL of 10 mM hexanal solution prepared in HEPES buffer supplemented with 300 µM CuCl2 and FBS was added to each well, and the changes in the response value of the luciferase activity over time were measured every minute immediately after the addition, thus obtaining the responses of approximately 400 human olfactory receptors to hexanal. The magnitude of the olfactory receptor response was expressed as a fold increase value obtained by dividing the maximum response value of luciferase activity that occurred after stimulation with hexanal by the luciferase activity before the stimulation with hexanal. Accordingly, OR2C1, OR2J2, OR2J3, OR5K1, OR5P3 and OR51E1 were identified as candidate olfactory receptors responsive to hexanal. After that, an aroma compound as a sample was prepared in HEPES buffer supplemented with 300 µM CuCl2 and FBS to a concentration 10 times the final concentration. 10 µL this aroma compound stimulation solution was added to each well, and the changes in the luciferase activity over time were measured every minute immediately after the addition to obtain the responses of approximately 400 human olfactory receptors to the aroma compound. The magnitude of the response of the olfactory receptor was expressed as a fold increase value determined by dividing the maximum luciferase activity value that occurred by the stimulation with the aroma compound by the luciferase activity before the stimulation with the aroma compound.
(§2) The responses of hexanal, which is an offensive odor-causing substance, to the olfactory receptors OR2C1, OR2J2, OR2J3, OR5K1, OR5P3 and OR51E1 were measured at various concentrations by the luciferase activity assay described above.

[4] = tested on: olfactory receptor OR5K1; assay: as above; assay type: cell-based, human; details: HEK293T cells expressing OR5K1; various hexanal concentrations; Figure 4
Description: as §1, §2

[5] = tested on: olfactory receptor OR2J3; assay: as above; assay type: cell-based, human; details: HEK293T cells expressing OR2J3; various hexanal concentrations; Figure 3
Description: as §1, §2

[6] = tested on: olfactory receptor OR2C1; assay: as above; assay type: cell-based, human; details: HEK293T cells expressing OR2C1; various hexanal concentrations; Figure 1
Description: as §1, §2

[7] = tested on: olfactory receptor OR5P3; assay: as above; assay type: cell-based, human; details: HEK293T cells expressing OR5P3; various hexanal concentrations; Figure 5
Description: as §1, §2

[8] = tested on: olfactory receptor OR2J2; assay: as above; assay type: cell-based, human; details: HEK293T cells expressing OR2J2; various hexanal concentrations; Figure 2
Description: as §1, §2

Structure (SMILES) | suppression of the OR2W1 response ([1]; masking agent against hexanal, Non-patent literature 6) | response to hexanal in the mock test [2] | hexanal response of OR2W1 ([1]; in vitro tests, prior art) | response of olfactory receptor OR51E1 to hexanal (fold increase value) [3] | response of olfactory receptor OR5K1 to hexanal (fold increase value) [4] | response of olfactory receptor OR2J3 to hexanal (fold increase value) [5] | response of olfactory receptor OR2C1 to hexanal (fold increase value) [6] | response of olfactory receptor OR5P3 to hexanal (fold increase value) [7] | response of olfactory receptor OR2J2 to hexanal (fold increase value) [8]
CC1=CCC2CC1C2(C)C (stereo not drawn) [alpha-pinene] | suppress the OR2W1 response | – | – | – | – | – | – | – | –
CCCCCC=O [hexanal] | – | no response was observed | concentration-dependent hexanal response | concentration-dependent responses | concentration-dependent responses | concentration-dependent responses | concentration-dependent responses | concentration-dependent responses | concentration-dependent responses
